A short description of data set [1]: Antiproliferative activity against human NCI-H460 cells measured after 48 hrs by sulforhodamine B assay. Format: functional. Conditions: NCI-H460, 48 h.
Data set [2] deals with H460. Put plainly: Inhibition of P-gp in drug resistant human H460 cells assessed as reduction in cell viability measured after 48 hrs by sulforhodamine B assay. Format: cell-based.
Data set [3] can be described thus: Antiproliferative activity against human K562 cells measured after 48 hrs by Presto blue assay. Format: functional. The note with it: K562, 48 h.
Data set [4] concerns K562. Put plainly: Inhibition of P-gp in doxorubicin resistant human K562 cells assessed as reduction in cell viability measured after 48 hrs by Presto blue assay. The data set is classed as cell-based.
For data set [5], the system named is K562. Briefly: Inhibition of P-gp in doxorubicin resistant human K562 cells assessed as increase in accumulation of rhodamine 123 at 10 uM measured after 1 hr by flow cytometry. Format: cell-based.
Data set [6] concerns K562. Put plainly: Inhibition of P-gp in doxorubicin resistant human K562 cells assessed as reduction in cell viability measured after 48 hrs by SRB assay. Format: cell-based.
Data set [7] is described as follows: Chemical stability of the compound in pH 6.7 potassium phosphate buffer at 10^-4 M incubated for overnight by HPLC method. Format: physicochemical. The note with it: pH 6.7, 100 µM.
For data set [8], the system named is K562. Briefly: Induction of apoptosis in doxorubicin resistant human K562 cells assessed as decrease in pro-caspase 3 level at 2.7 to 5.4 uM measured after 48 hrs by Western blot method. Format: functional, cell-based.
The nature of data set [9]: Down regulation of p-gp expression in doxorubicin resistant human K562 cells at 2.7 to 4.1 uM measured after 48 hrs by Western blot method. The data set is classed as functional, cell-based.
The nature of data set [10]: Cell cycle arrest in doxorubicin resistant human K562 cells assessed as increase in G2/M phase at 2.7 uM measured after 48 hrs by propidium iodide staining based flow cytometry. Format: functional.
Data set [11] is described as follows: Cell cycle arrest in doxorubicin resistant human K562 cells assessed as decrease in G0/G1 phase at 2.7 uM measured after 48 hrs by propidium iodide staining based flow cytometry. Format: functional.
Data set [12] in a line: Cell cycle arrest in doxorubicin resistant human K562 cells assessed as decrease in S phase at 2.7 uM measured after 48 hrs by propidium iodide staining based flow cytometry. The data set is classed as functional.
The nature of data set [13]: Cell cycle arrest in doxorubicin resistant human K562 cells assessed as accumulation at G2/M phase at 4.1 to 5.4 uM measured after 48 hrs by propidium iodide staining based flow cytometry. The data set is classed as functional.
Data set [14] deals with K562. Briefly: Induction of apoptosis in doxorubicin resistant human K562 cells at 2.7 uM by Annexin V-FITC/propidium iodide staining based flow cytometry. The data set is classed as functional.
The test system of data set [15] is K562. Briefly: Induction of apoptosis in doxorubicin resistant human K562 cells at 4.1 uM by Annexin V-FITC/propidium iodide staining based flow cytometry. Format: functional.
In data set [16] the test system is K562. Put plainly: Induction of apoptosis in doxorubicin resistant human K562 cells at 5.4 uM by Annexin V-FITC/propidium iodide staining based flow cytometry. Format: functional.
The nature of data set [17]: Up regulation of p53 expression in doxorubicin resistant human K562 cells at 2.7 to 5.4 uM measured after 48 hrs by Western blot method. Format: functional, cell-based.
A short description of data set [18]: Down regulation of cyclin B1 expression in doxorubicin resistant human K562 cells at 2.7 to 5.4 uM measured after 48 hrs by Western blot method. Format: functional, cell-based.
Data set [19] concerns K562. Briefly: Induction of apoptosis in doxorubicin resistant human K562 cells assessed as increase in PARP-1 cleavage at 2.7 to 5.4 uM measured after 48 hrs by Western blot method. Format: functional, cell-based.
The nature of data set [20]: Chemical stability of the compound in pH 9.1 sodium boric acid buffer at 10^-4 M incubated for overnight by HPLC method. Conditions: pH 9.1, 100 µM. The data set is classed as physicochemical.
Data set [21] can be described thus: Chemical stability of the compound in pH 5 sodium acetate buffer at 10^-4 M incubated for overnight by HPLC method. Format: physicochemical. Conditions: pH 5, 100 µM.
Data set [22] is described as follows: Chemical stability of the compound in pH 7.4 phosphate buffered saline at 10^-4 M incubated for overnight by HPLC method. The note with it: buffer, pH 7.4, 100 µM. Format: physicochemical.
Data set [23] in a line: Chemical stability of the compound in pH 1 HCl buffer at 10^-4 M incubated for 75 mins by HPLC method. Format: physicochemical. The note with it: pH 1, 1.25 h, 100 µM.
Data set [24] is described as follows: Stability of the compound in RPMI medium at 1.5 10^-3 M incubated for 5 to 30 mins under dark condition by HPLC method. The data set is classed as physicochemical.
Data set [25] in a line: Stability of the compound at -20 degreeC at 10^-4 M incubated for 6 to 12 days under dark condition by HPLC method. The note with it: 100 µM. Format: physicochemical.
Data set [26] is described as follows: Stability of the compound at 4 degreeC at 10^-4 M incubated for 6 to 12 days under dark condition by HPLC method. The data set is classed as physicochemical. The note with it: 100 µM.
A short description of data set [27]: Stability of the compound at room temperature at 10^-4 M incubated for 6 to 12 days under dark condition by HPLC method. Conditions: 100 µM. The data set is classed as physicochemical.
Data set [28] can be described thus: Stability of the compound in HEPES medium at 1.5 10^-3 M incubated for 5 to 30 mins under dark condition by HPLC method. Format: physicochemical.
Data set [29] has as its system K562. Briefly: Induction of apoptosis in doxorubicin resistant human K562 cells decrease in pro-caspase 3 level at 20 to 40 uM measured after 48 hrs by Western blot method. Format: functional, cell-based.
Data set [30] is described as follows: Down regulation of p-gp expression in doxorubicin resistant human K562 cells at 20 to 30 uM measured after 48 hrs by Western blot method. Format: functional, cell-based.
Data set [31] in a line: Cell cycle arrest in doxorubicin resistant human K562 cells assessed as increase in G2/M phase at 20 uM measured after 48 hrs by propidium iodide staining based flow cytometry. The data set is classed as functional.
A short description of data set [32]: Cell cycle arrest in doxorubicin resistant human K562 cells assessed as decrease in G0/G1 phase at 20 uM measured after 48 hrs by propidium iodide staining based flow cytometry. Format: functional.
Data set [33] can be described thus: Cell cycle arrest in doxorubicin resistant human K562 cells assessed as decrease in S phase at 20 uM measured after 48 hrs by propidium iodide staining based flow cytometry. Format: functional.
Data set [34] in a line: Cell cycle arrest in doxorubicin resistant human K562 cells assessed as accumulation at G0/G1 phase at 30 to 40 uM measured after 48 hrs by propidium iodide staining based flow cytometry. Format: functional.
Data set [35] is described as follows: Cell cycle arrest in doxorubicin resistant human K562 cells assessed as decrease in G2/M phase at 30 to 40 uM measured after 48 hrs by propidium iodide staining based flow cytometry. Format: functional.
Data set [36] relates to K562. Put plainly: Induction of apoptosis in doxorubicin resistant human K562 cells at 20 uM by Annexin V-FITC/propidium iodide staining based flow cytometry. The data set is classed as functional.
In data set [37] the test system is K562. Briefly: Induction of apoptosis in doxorubicin resistant human K562 cells at 30 uM by Annexin V-FITC/propidium iodide staining based flow cytometry. Format: functional.
Data set [38] deals with K562. Briefly: Induction of apoptosis in doxorubicin resistant human K562 cells at 40 uM by Annexin V-FITC/propidium iodide staining based flow cytometry. The data set is classed as functional.
The nature of data set [39]: Up regulation of p53 expression in doxorubicin resistant human K562 cells at 20 to 40 uM measured after 48 hrs by Western blot method. The data set is classed as functional, cell-based.
Data set [40] can be described thus: Down regulation of cyclin B1 expression in doxorubicin resistant human K562 cells at 20 to 40 uM measured after 48 hrs by Western blot method. Format: functional, cell-based.
Data set [41] concerns K562. Briefly: Induction of apoptosis in doxorubicin resistant human K562 cells assessed as increase in PARP-1 cleavage at 20 to 40 uM measured after 48 hrs by Western blot method. Format: functional, cell-based.

Data on twelve compounds can be found in ChEMBL document CHEMBL3872245, “A novel curcumin derivative which inhibits P-glycoprotein, arrests cell cycle and induces apoptosis in multidrug resistance cells” (Bioorg Med Chem, 2017).

The source made the active and inactive calls. The rule behind the calls is not given here.

In the case of `COc1cc(/C=C/C(C)=O)ccc1OCCCNC(=O)OC(C)(C)C`, the GI50 is 55.2 µM in [1], 41 µM in data set [2], more than 150 µM in data set [3] and more than 150 µM in [4]. The inhibition result in data set [5] was “Active”.
With `COC(=O)COc1ccc(/C=C/C(C)=O)cc1OC`, the GI50 in [1], in [2], in [3] and in data set [4] was more than 150 µM each time.
Regarding `C#CCOc1ccc(/C=C/C(C)=O)cc1OC`, the GI50 in data set [1] was 52.7 µM; in data set [2], 41.7 µM; in data set [3], more than 150 µM; in data set [4], 133 µM.
Regarding `COc1cccc2c1C(=O)c1c(O)c3c(c(O)c1C2=O)C[C@@](O)(C(=O)CO)C[C@@H]3O[C@H]1C[C@H](N)[C@H](O)[C@H](C)O1` [DOXORUBICIN], the GI50 in data set [1] is 0.02 µM; in data set [2] it was more than 0.15 µM; in data set [3], 0.065 µM; in data set [4] it was more than 0.15 µM; in [6], 11.6 µM.
Regarding `C#CCOc1ccc(/C=C/C(=O)CC(=O)/C=C/c2ccc(OCC#C)c(OC)c2)cc1OC`, the Stability entry in [7], in [20], in [21], in data set [22], in data set [23] and in [24] was “Stable” throughout. Moreover, the Stability result in data set [25], in data set [26], in data set [27] and in data set [28] was “Stable” each time. The outcome in [8], in [9], in [10], in data set [11], in [12] and in data set [13] was Active. The result in [17], in [18] and in data set [19] was Active. Also, the GI50 in data set [1] was 3.4 µM; in data set [2], 2.6 µM; in [3] it was 6.3 µM; in [4] it was 2.73 µM. Moreover, the inhibition result in data set [5] was “Active”. In addition, the Activity turned out to be 9.3% in data set [14], 11.3% in data set [15] and 14.8% in data set [16].
In the case of `COc1cc(/C=C/C(C)=O)ccc1OCc1cn(CCO[C@@H]2O[C@H](COC(C)=O)[C@H](OC(C)=O)[C@H](OC(C)=O)[C@H]2NC(C)=O)nn1`, the GI50 in data set [1], in data set [2], in [3] and in data set [4] was more than 150 µM each time.
Regarding `COc1cc(/C=C/C(=O)CC(=O)/C=C/c2ccc(OCc3cn(CCO[C@@H]4O[C@H](COC(C)=O)[C@H](OC(C)=O)[C@H](OC(C)=O)[C@H]4NC(C)=O)nn3)c(OC)c2)ccc1OCc1cn(CCO[C@@H]2O[C@H](COC(C)=O)[C@H](OC(C)=O)[C@H](OC(C)=O)[C@H]2NC(C)=O)nn1`, the GI50 in data set [1], in data set [2], in [3] and in data set [4] was more than 150 µM each time.
Consider `COc1cc(/C=C/C(=O)CC(=O)/C=C/c2ccc(O)c(OC)c2)ccc1O` [CURCUMIN], for which the Stability entry is “Unstable” in data set [7]; “Unstable” in [20]; “Unstable” in [21]; “Unstable” in data set [22]; “Unstable” in data set [23]; “Stable” in data set [24]. The Stability entry in data set [25], in data set [26], in data set [27] and in data set [28] was “Stable” in each case. Further, the outcome in data set [29], in [30], in [31], in data set [32], in data set [33] and in data set [34] was Active. The outcome in data set [35], in [39], in data set [40] and in [41] was Active. Besides, the GI50 was 27.3 µM in data set [1], 26 µM in data set [2], 21.7 µM in data set [3] and 19.7 µM in data set [4]. For the same compound, the Activity in data set [36] came to 11.8%; in [37], 26.9%; in data set [38], 32%.
In the case of `C=CCOc1ccc(/C=C/C(C)=O)cc1OC`, the GI50 in data set [1] was determined as 41.5 µM; in [2] it was 39.3 µM; in data set [3], 68.7 µM; in data set [4] it was 63.3 µM.
With `COc1cc(/C=C/C(C)=O)ccc1O` [DEHYDROZINGERONE], the Stability result in data set [7], in [20], in data set [21], in data set [22], in data set [23] and in data set [24] was “Stable” in each case. In addition, the Stability entry in data set [25], in data set [26], in [27] and in data set [28] was “Stable” throughout. Moreover, the GI50 in data set [1] was 64.8 µM; in data set [2] it was 62.7 µM; in data set [3], 85.3 µM; in data set [4] it was 92 µM.
On to `COc1ccc(CCN(C)CCCC(C#N)(c2ccc(OC)c(OC)c2)C(C)C)cc1OC` (stereo not drawn), for which the inhibition entry in data set [5] was “Active”.
Regarding `COc1cc(/C=C/C(=O)/C=C/c2ccc(O)c(OC)c2)ccc1O`, the Stability result in data set [7], in data set [20], in [21], in [22], in data set [23] and in [24] was “Stable” in each case. Also, the Stability result in [25] is on record as “Unstable”; in data set [26], “Unstable”; in [27], “Unstable”; in data set [28] it was “Stable”. Further, the GI50 in data set [1] is 1.47 µM; in data set [2], 1.8 µM; in data set [3], 9.33 µM; in [4] it was 20.7 µM.
